Key:
[1] = system: LPS-induced secretion of TNFα in human PBMCs; assay: LPS-induced secretion of TNFα in human PBMCs; type: cell-based; details: 24 h, LPS 10 ng/ml
Experimental: Extraction process of peripheral blood mononuclear cells (PBMCs): one unit of human peripheral blood concentrate (concentrated from 200 cc peripheral blood) was sucked and added with 0.9% saline until a total volume reached 120 ml, and mixed homogenously. 15 ml Lymphoprep™ was added into 50 ml centrifuge tube, and then 30 ml of diluted blood concentrate was carefully and slowly added thereto, allowing the diluted blood to be stacked on the layered solution and preventing the diluted blood from being mixed into the separated solutions or breaking the surface of the separated solution, wherein a ratio of Lymphoprep™ to the diluted blood was 1:2. The centrifuge tubes were balanced and placed in a horizontal centrifuge (eppendorf, 5810R), and centrifuged at 800 g and 20° C. for 20 min. The centrifuge tubes were carefully taken out. PBMCs were absorbed by directly inserting the Pasteur pipette deep into the buffy coat. The obtained PBMCs were gently pipetted with 3 times the volume of 0.9% normal saline or PBS (without calcium or magnesium ions) to mix homogenously. After that, the cells were centrifuged at 250 g and 20° C. for 10 min, the supernatant was removed to remove the platelets remaining in the cell suspension. The obtained cell pellet was resuspended in 20 ml of PBS, and counted using trypan blue.
Compound screening by using PBMCs: the PBMC suspension obtained above was centrifuged to remove PBS, then resuspended in complete medium (RPMI1640+10% FBS+1% P/S) and counted. 100 μL/well of the cells was seeded at 5×10^4/well. Each of the compounds to be screened was prepared as 4 times the final concentration, which was added to the cells at 50 μL/well. The compound was pre-incubated for 30 min in advance of being added to the cells. Meanwhile, control wells to which the compound was not added were provided. A final stimulation concentration of LPS was 10 ng/ml, and LPS was formulated as 4 times the final stimulation concentration, and added to the cells at 50 μL/well. Meanwhile, control wells, i.e., wells without LPS were provided. The cells were incubated for 24 h, and 10% of the supernatant was collected for detection. The obtained supernatant was detected using Invitrogen's Human TNF-α kit (REF: 88-7346-88).

[2] = biological target: T1, PDE4D (Homo sapiens, UniProt Q08499); assay: PDE4D enzyme activity assay (PDE-Glo Phosphodiesterase Assay Kit); type: biochemical
T1 construct: purchased Enzo Life Sciences BML-SE523-0020
Experimental: (§1) For the previously synthesized compounds, the inhibitory activity of the compounds against PDE4B and against PDE4D was tested by using PDE-Glo Phosphodiesterase Assay Kit (promega, V1361). In short, in accordance with the instructions of the kit, a concentrated stock solution (10 mM) the compound to be tested was first prepared with DMSO solvent, and the concentrated stock solution was then diluted into 10× working solutions with a Reaction buffer provided in the kit. With the Reaction buffer, on ice, PDE4B enzyme (Enzo Life Sciences, BML-SE522-0020) was diluted to a concentration of 1 ng/μl to obtain a PDE4B enzyme working solution, and PDE4D enzyme (Enzo Life Sciences, BML-SE523-0020) was diluted to a concentration of 4 ng/μl to obtain a PDE4D enzyme working solution. 1.5 μl of the PDE4B working solution (or PDE4D working solution) and 1 μl of the compound working solution were added to wells of 384-well plate (Corning, CLS3707), and incubated with shaking at room temperature for 5 min, followed by adding 2.5 μl of cAMP (in Reaction buffer, 2 μM) per well, incubating with shaking at room temperature for 20 min. 2.5 μl/well of 1× Termination Buffer, and then 2.5 μl/well of 1× Detection Buffer were added, and further incubated with shaking at room temperature for 20 min. 10 μl/well of 1× Kinase-Glo was added, and the plate was incubated with shaking at room temperature for 10 min, and bioluminescence was measured with PheraStar instrument. The experimental results were plotted with GraphPad Prism software, and fitted to calculate IC50 of each compound.

[3] = biological target: T2, PDE4B (Homo sapiens, UniProt Q07343); assay: PDE4B enzyme activity assay (PDE-Glo Phosphodiesterase Assay Kit); type: biochemical; details: for IC50 (PDE4D)/IC50 (PDE4B): selectivity ratio
T2 construct: purchased Enzo Life Sciences BML-SE522-0020
Experimental: as §1

T2 sequence (Q07343 whole entry): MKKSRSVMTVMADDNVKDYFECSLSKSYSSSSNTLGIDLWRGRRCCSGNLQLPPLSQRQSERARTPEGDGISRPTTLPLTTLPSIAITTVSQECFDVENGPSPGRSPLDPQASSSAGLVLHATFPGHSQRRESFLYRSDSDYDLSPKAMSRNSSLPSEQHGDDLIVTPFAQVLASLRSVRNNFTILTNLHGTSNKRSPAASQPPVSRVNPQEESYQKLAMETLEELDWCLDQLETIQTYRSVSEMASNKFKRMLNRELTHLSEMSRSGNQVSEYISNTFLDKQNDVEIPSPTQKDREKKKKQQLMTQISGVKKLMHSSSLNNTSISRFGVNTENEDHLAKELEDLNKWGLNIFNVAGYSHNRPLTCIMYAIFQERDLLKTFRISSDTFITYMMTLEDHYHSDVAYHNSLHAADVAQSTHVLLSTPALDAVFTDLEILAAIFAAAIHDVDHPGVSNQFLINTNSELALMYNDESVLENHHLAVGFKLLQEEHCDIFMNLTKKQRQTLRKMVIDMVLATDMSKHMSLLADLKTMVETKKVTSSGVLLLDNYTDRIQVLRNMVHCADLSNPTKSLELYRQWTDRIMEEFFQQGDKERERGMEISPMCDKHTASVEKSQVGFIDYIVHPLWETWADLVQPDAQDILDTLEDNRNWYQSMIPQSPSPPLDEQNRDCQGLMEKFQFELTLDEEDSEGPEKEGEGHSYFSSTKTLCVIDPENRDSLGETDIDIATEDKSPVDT
T1 sequence (Q08499 whole entry): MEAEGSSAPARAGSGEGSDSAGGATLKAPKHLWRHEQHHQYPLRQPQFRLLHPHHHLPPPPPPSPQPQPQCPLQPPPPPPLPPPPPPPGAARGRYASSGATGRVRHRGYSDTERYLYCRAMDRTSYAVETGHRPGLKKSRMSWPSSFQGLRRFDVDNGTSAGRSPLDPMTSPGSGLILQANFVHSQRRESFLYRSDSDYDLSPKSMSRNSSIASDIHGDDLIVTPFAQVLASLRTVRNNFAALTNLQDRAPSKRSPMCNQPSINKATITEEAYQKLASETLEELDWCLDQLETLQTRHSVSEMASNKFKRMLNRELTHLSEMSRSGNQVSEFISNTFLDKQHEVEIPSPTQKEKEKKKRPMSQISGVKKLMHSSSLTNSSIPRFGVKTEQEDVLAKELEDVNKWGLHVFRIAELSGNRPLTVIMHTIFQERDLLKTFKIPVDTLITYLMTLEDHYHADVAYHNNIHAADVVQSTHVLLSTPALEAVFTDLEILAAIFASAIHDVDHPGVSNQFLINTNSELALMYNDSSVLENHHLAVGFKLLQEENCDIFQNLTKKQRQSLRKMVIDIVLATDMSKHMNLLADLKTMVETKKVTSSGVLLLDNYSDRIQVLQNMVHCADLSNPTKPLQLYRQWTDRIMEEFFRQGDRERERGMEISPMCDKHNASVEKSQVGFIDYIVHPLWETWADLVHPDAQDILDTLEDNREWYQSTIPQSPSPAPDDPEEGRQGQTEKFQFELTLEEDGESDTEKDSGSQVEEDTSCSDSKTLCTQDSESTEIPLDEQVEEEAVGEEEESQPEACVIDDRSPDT

| IC50 [3] [nM] | inhibition of PDE4B (in words) [3] | Compound | IC50 ([1]; Homo sapiens, PBMC) [nM] | selective inhibitory activity against PDE4B versus PDE4D, compared with the positive control compound (in words) [3] | further results |
| --- | --- | --- | --- | --- | --- |
| 1.3 |  | COc1ccc([C@@H]2CN(C(=O)[C@@H](O)CO)C[C@@]2(C)[C@@H](C)O)cc1OC1CN(c2ncc(Cl)cc2C)C1 [Compound 023, (S)-1-((3S,4S)-4-(3-((1-(5-chloro-3-methylpyridin-2-yl)azetidin-3-yl)oxy)-4-methoxyphenyl)-3-((R)-1-hydroxyethyl)-3-methylpyrrolidin-1-yl)-2,3-dihydroxypropan-1-one] | 5.4 |  |  |
|  | effectively inhibit PDE4B | COc1ccc([C@@H]2CN(C(=O)[C@@H](O)CO)C[C@@]2(C)[C@@H](C)O)cc1OC1CN(c2ncc(Cl)cc2F)C1 [Compound 024, (S)-1-((3S,4S)-4-(3-((1-(5-chloro-3-fluoropyridin-2-yl)azetidin-3-yl)oxy)-4-methoxyphenyl)-3-((R)-1-hydroxyethyl)-3-methylpyrrolidin-1-yl)-2,3-dihydroxypropan-1-one] |  | significantly higher than that control compound | IC50 [1]: 6.56 nM |
| 2.76 |  | COc1ccc([C@@H]2CN(C(=O)[C@@H](O)CO)C[C@@]2(C)[C@@H](C)O)cc1OC1CN(c2ccc(F)c(C)n2)C1 [Compound 026, (S)-1-((3S,4S)-4-(3-((1-(5-fluoro-6-methylpyridin-2-yl)azetidin-3-yl)oxy)-4-methoxyphenyl)-3-((R)-1-hydroxyethyl)-3-methylpyrrolidin-1-yl)-2,3-dihydroxypropan-1-one] | 14.9 |  |  |
| 14.3 |  | CCc1nc(N2CC(Oc3cc([C@@H]4CN(C(=O)[C@@H](O)CO)C[C@@]4(C)[C@@H](C)O)ccc3OC)C2)ccc1C [Compound 027, (S)-1-((3S,4S)-4-(3-((1-(6-ethyl-5-methylpyridin-2-yl)azetidin-3-yl)oxy)-4-methoxyphenyl)-3-((R)-1-hydroxyethyl)-3-methylpyrrolidin-1-yl)-2,3-dihydroxypropan-1-one] |  |  | IC50 [2]: 24.8 nM; IC50 (PDE4D)/IC50 (PDE4B) [3]: 1.73 |
|  | effectively inhibit PDE4B | CCc1ccc(N2CC(Oc3cc([C@@H]4CN(C(=O)[C@@H](O)CO)C[C@@]4(C)[C@@H](C)O)ccc3OC)C2)nc1C [Compound 029, (S)-1-((3S,4S)-4-(3-((1-(5-ethyl-6-methylpyridin-2-yl)azetidin-3-yl)oxy)-4-methoxyphenyl)-3-((R)-1-hydroxyethyl)-3-methylpyrrolidin-1-yl)-2,3-dihydroxypropan-1-one] |  | significantly higher than that control compound |  |
|  | effectively inhibit PDE4B | CCc1cnc(N2CC(Oc3cc([C@@H]4CN(C(=O)[C@@H](O)CO)C[C@@]4(C)[C@@H](C)O)ccc3OC)C2)cc1C [Compound 030, (S)-1-((3S,4S)-4-(3-((1-(5-ethyl-4-methylpyridin-2-yl)azetidin-3-yl)oxy)-4-methoxyphenyl)-3-((R)-1-hydroxyethyl)-3-methylpyrrolidin-1-yl)-2,3-dihydroxypropan-1-one] |  | significantly higher than that control compound |  |

Second part, the molecule before the results:

| Compound | IC50 [3] [nM] | inhibition of PDE4B (in words) [3] | IC50 ([1]; Homo sapiens, PBMC) [nM] | selective inhibitory activity against PDE4B versus PDE4D, compared with the positive control compound (in words) [3] | further results |
| --- | --- | --- | --- | --- | --- |
| COc1ccc([C@@H]2CN(C(=O)[C@@H](O)CO)C[C@@]2(C)[C@@H](C)O)cc1OC1CN(c2ccc(C)c(C#N)n2)C1 [Compound 003, 6-(3-(5-((3S,4S)-1-((S)-2,3-dihydroxypropanoyl)-4-((R)-1-hydroxyethyl)-4-methylpyrrolidin-3-yl)-2-methoxyphenoxy)azetidin-1-yl)-3-methylpicolinonitrile] | 0.41 |  | 1.48 |  | IC50 [2]: 0.39 nM; IC50 (PDE4D)/IC50 (PDE4B) [3]: 0.95 |
| COc1ccc([C@@H]2CN(C(=O)[C@@H](O)CO)C[C@@]2(C)[C@@H](C)O)cc1OC1CN(c2ncc(C)cc2Cl)C1 [Compound 005, (S)-1-((3S,4S)-4-(3-((1-(3-chloro-5-methylpyridin-2-yl)azetidin-3-yl)oxy)-4-methoxyphenyl)-3-((R)-1-hydroxyethyl)-3-methylpyrrolidin-1-yl)-2,3-dihydroxypropan-1-one] |  | effectively inhibit PDE4B | 6.18 | significantly higher than that control compound |  |
| COc1ccc([C@@H]2CN(C(=O)[C@@H](O)CO)C[C@@]2(C)[C@@H](C)O)cc1OC1CN(c2ccc(C#N)c(C)n2)C1 [Compound 013, 6-(3-(5-((3S,4S)-1-((S)-2,3-dihydroxypropanoyl)-4-((R)-1-hydroxyethyl)-4-methylpyrrolidin-3-yl)-2-methoxyphenoxy)azetidin-1-yl)-2-methylnicotinonitrile] |  | effectively inhibit PDE4B |  | significantly higher than that control compound |  |
| COc1ccc([C@@H]2CN(C(=O)[C@@H](O)CO)C[C@@]2(C)[C@@H](C)O)cc1OC1CN(c2ncc(C)cn2)C1 [Compound 016, (S)-2,3-dihydroxy-1-((3S,4S)-3-((R)-1-hydroxyethyl)-4-(4-methoxy-3-((1-(5-methylpyrimidin-2-yl)azetidin-3-yl)oxy)phenyl)-3-methylpyrrolidin-1-yl)propan-1-one] |  | effectively inhibit PDE4B |  | significantly higher than that control compound |  |
| CCc1cnc(N2CC(Oc3cc([C@@H]4CN(C(=O)[C@@H](O)CO)C[C@@]4(C)[C@@H](C)O)ccc3OC)C2)nc1 [Compound 017, (S)-1-((3S,4S)-4-(3-((1-(5-ethylpyrimidin-2-yl)azetidin-3-yl)oxy)-4-methoxyphenyl)-3-((R)-1-hydroxyethyl)-3-methylpyrrolidin-1-yl)-2,3-dihydroxypropan-1-one] |  | effectively inhibit PDE4B |  | significantly higher than that control compound |  |
| COc1ccc([C@@H]2CN(C(=O)[C@@H](O)CO)C[C@@]2(C)[C@@H](C)O)cc1OC1CN(c2ncc(Cl)cn2)C1 [Compound 018, (S)-1-((3S,4S)-4-(3-((1-(5-chloropyrimidin-2-yl)azetidin-3-yl)oxy)-4-methoxyphenyl)-3-((R)-1-hydroxyethyl)-3-methylpyrrolidin-1-yl)-2,3-dihydroxypropan-1-one] |  | effectively inhibit PDE4B |  | significantly higher than that control compound |  |
| COc1ccc([C@@H]2CN(C(=O)[C@@H](O)CO)C[C@@]2(C)[C@@H](C)O)cc1OC1CN(c2cnc(C#N)cn2)C1 [Compound 019, 5-(3-(5-((3S,4S)-1-((S)-2,3-dihydroxypropanoyl)-4-((R)-1-hydroxyethyl)-4-methylpyrrolidin-3-yl)-2-methoxyphenoxy)azetidin-1-yl)pyrazine-2-carbonitrile] | 1.87 |  |  |  |  |
| COc1ccc(N2CC(Oc3cc([C@@H]4CN(C(=O)[C@@H](O)CO)C[C@@]4(C)[C@@H](C)O)ccc3OC)C2)cn1 [Compound 020, (S)-2,3-dihydroxy-1-((3S,4S)-3-((R)-1-hydroxyethyl)-4-(4-methoxy-3-((1-(6-methoxypyridin-3-yl)azetidin-3-yl)oxy)phenyl)-3-methylpyrrolidin-1-yl)propan-1-one] | 1.97 |  | 9.38 |  |  |
